Reference: patent US20250230193A1, “CYCLIC COMPOUND HAVING SELECTIVE KRAS INHIBITORY EFFECT ON HRAS AND NRAS” (CHUGAI SEIYAKU KABUSHIKI KAISHA, priority 2022, published 2025)
Where a SMILES comes first, the peptide text is derived from it. Bridges are numbered along the chain shown (N, C = ends). [ ]: non-standard residue; d: D form. hPhe(3-Cl-4-CF3) = N[C@@H](CCc1ccc(C(F)(F)F)c(Cl)c1)C(=O)O; NPrPhe(4-CF3) = CCCN[C@@H](Cc1ccc(C(F)(F)F)cc1)C(=O)O; NMeNva(3-Et) = CCC(CC)[C@H](NC)C(=O)O; NMeD = CN[C@@H](CC(=O)O)C(=O)O; NMeL = CN[C@@H](CC(C)C)C(=O)O; Ac4c = NC1(C(=O)O)CCC1; Sar = CNCC(=O)O

Legend:
[1] = molecular target: GDP-bound NRAS wild-type protein (Homo sapiens, UniProt P01111); experiment: Binding to NRAS by surface plasmon resonance (SPR), Single Cycle Kinetics; conditions: SPR; for NRAS/KRAS (ratio of KD value with respect to NRAS to KD value with respect to KRAS) / NRAS/KRAS (ratio of KD value for NRAS to KD value for KRAS): GDP-bound NRAS wild-type vs GDP-bound KRAS wild-type
GDP-bound NRAS wild-type protein, sequence (P01111 whole entry): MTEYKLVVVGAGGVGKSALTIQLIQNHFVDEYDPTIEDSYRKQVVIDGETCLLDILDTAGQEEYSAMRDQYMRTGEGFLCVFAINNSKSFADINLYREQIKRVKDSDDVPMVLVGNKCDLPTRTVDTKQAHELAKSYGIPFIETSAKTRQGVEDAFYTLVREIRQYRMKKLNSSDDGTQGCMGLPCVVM

[2] = molecular target: GDP-bound HRAS wild-type protein (Homo sapiens, UniProt P01112); experiment: Binding to HRAS by surface plasmon resonance (SPR), Single Cycle Kinetics; conditions: SPR; for HRAS/KRAS (ratio of KD value with respect to HRAS to KD value with respect to KRAS) / HRAS/KRAS (ratio of KD value for HRAS to KD value for KRAS): GDP-bound HRAS wild-type vs GDP-bound KRAS wild-type
GDP-bound HRAS wild-type protein, sequence (P01112 whole entry): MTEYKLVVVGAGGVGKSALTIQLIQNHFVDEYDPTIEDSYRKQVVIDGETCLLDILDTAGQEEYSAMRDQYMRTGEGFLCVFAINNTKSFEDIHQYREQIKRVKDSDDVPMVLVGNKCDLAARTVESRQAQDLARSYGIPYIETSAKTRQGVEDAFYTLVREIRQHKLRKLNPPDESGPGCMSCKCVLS

## CCO[C@@H]1C[C@H]2C(=O)NC3(CCC3)C(=O)N(C)[C@@H](C3CCCC3)C(=O)N(C)[C@H](C(=O)N(C)CC)CC(=O)N(C)[C@@H](CC)C(=O)N[C@@H]([C@@H](C)CC)C(=O)N(C)CC(=O)N(C)[C@H]3C/C=C\CCN(C3=O)[C@@H](CC3CCCCC3)C(=O)N(C)CC(=O)N[C@@H](CCc3cc(F)c(C(F)(F)F)c(F)c3)C(=O)N2C1 [PP1552]
[1]; KD ratio class
  NRAS/KRAS (ratio of KD value for GDP-bound NRAS wild-type protein to KD value for KRAS): A (a compound having 10 or more and less than 20 is denoted as A)
[2]; KD ratio class
  HRAS/KRAS (ratio of KD value for GDP-bound HRAS wild-type protein to KD value for KRAS): A (a compound having 10 or more and less than 20 is denoted as A)

## CCO[C@@H]1C[C@H]2C(=O)NC3(CCC3)C(=O)N(C)[C@@H](C3CCCC3)C(=O)N(C)[C@H](C(=O)N3CCOCC3)CC(=O)N(C)[C@@H](Cc3ccccc3Cl)C(=O)N[C@@H]([C@@H](C)CC)C(=O)N(C)CC(=O)N(C)[C@H]3CCCCCN(C3=O)[C@@H](Cc3ccc(C(F)(F)F)cc3)C(=O)N(C)CC(=O)N[C@@H](CCc3cc(F)c(C(F)(F)F)c(F)c3)C(=O)N2C1 [PP0929]
[1]; KD ratio
  NRAS/KRAS (ratio of KD value with respect to NRAS to KD value with respect to KRAS): A (a compound having 10 or more and less than 20 is denoted as A)
[2]; KD ratio
  HRAS/KRAS (ratio of KD value with respect to HRAS to KD value with respect to KRAS): B (a compound having 3 or more and less than 10 is denoted as B)

## CCO[C@@H]1C[C@H]2C(=O)NC3(CC(C)(C)C3)C(=O)N(C)[C@@H](C(CC)CC)C(=O)N(C)[C@H](C(=O)N(C)C)CC(=O)N(C)[C@@H](CC3CC3)C(=O)N[C@@H]([C@@H](C)CC)C(=O)N(C)CC(=O)N(C)[C@H]3C/C=C\CCN(C3=O)[C@@H](CC3CCC(F)(F)CC3)C(=O)N(C)CC(=O)N[C@@H](CCc3cc(F)c(C(F)(F)F)c(F)c3)C(=O)N2C1 [PP2485]
[1]
  NRAS/KRAS (ratio of KD value with respect to NRAS to KD value with respect to KRAS): A (a compound having 10 or more and less than 20 is denoted as A)
[2]
  HRAS/KRAS (ratio of KD value with respect to HRAS to KD value with respect to KRAS): A (a compound having 10 or more and less than 20 is denoted as A)

## CC[C@H](C)[C@@H]1NC(=O)[C@H](CC(C)C)N(C)C(=O)C[C@@H](C(=O)N(C)C)N(C)C(=O)[C@H](C2CCCC2)N(C)C(=O)C2(CCCC2)NC(=O)[C@@H]2CC(F)(F)CN2C(=O)[C@H](CCc2cc(F)c(C(F)(F)F)c(F)c2)NC(=O)CN(C)C(=O)[C@H](Cc2ccc(C(F)(F)F)cc2)N2CCCCC[C@@H](C2=O)N(C)C(=O)CN(C)C1=O [PP0465]
[1]; KD ratio NRAS/KRAS
  NRAS/KRAS (ratio of KD value with respect to GDP-bound NRAS wild-type protein to KD value with respect to KRAS): B (a compound having 3 or more and less than 10 is denoted as B)
[2]; KD ratio HRAS/KRAS
  HRAS/KRAS (ratio of KD value with respect to GDP-bound HRAS wild-type protein to KD value with respect to KRAS): B (a compound having 3 or more and less than 10 is denoted as B)

## CC[C@H](C)[C@@H]1NC(=O)[C@H](CC(C)C)N(C)C(=O)C[C@@H](C(=O)N(C)CC)N(C)C(=O)[C@H](C2CCCC2)N(C)C(=O)C2(CC(C)(C)C2)NC(=O)[C@@H]2C[C@@H](F)CN2C(=O)[C@H](CCc2cc(F)c(C(F)(F)F)c(F)c2)NC(=O)CN(C)C(=O)[C@H](Cc2ccc(C(F)(F)F)cc2)N2CC/C=C\C[C@@H](C2=O)N(C)C(=O)CN(C)C1=O [PP1694]
[1]; KD ratio
  NRAS/KRAS (ratio of KD value for NRAS to KD value for KRAS): A (a compound having 10 or more and less than 20 is denoted as A)
[2]; KD ratio
  HRAS/KRAS (ratio of KD value for HRAS to KD value for KRAS): A (a compound having 10 or more and less than 20 is denoted as A)

## CC[C@H](C)[C@@H]1NC(=O)[C@H](CC)N(C)C(=O)C[C@@H](C(=O)N(C)C)N(C)C(=O)[C@H](C2CCCC2)N(C)C(=O)C2(CCC2)NC(=O)[C@@H]2C[C@@H](C(F)(F)F)CN2C(=O)[C@H](CCc2cc(F)c(C(F)(F)F)c(F)c2)NC(=O)CN(C)C(=O)[C@H](Cc2ccc(C(F)(F)F)cc2)N2CC/C=C\C[C@@H](C2=O)N(C)C(=O)CN(C)C1=O [PP1133]
[1]; KD ratio
  NRAS/KRAS (ratio of KD value with respect to NRAS to KD value with respect to KRAS): A (a compound having 10 or more and less than 20 is denoted as A)
[2]; KD ratio
  HRAS/KRAS (ratio of KD value with respect to HRAS to KD value with respect to KRAS): A (a compound having 10 or more and less than 20 is denoted as A)

## CCCN1C(=O)CN(C)C(=O)CN(C)C(=O)[C@H]([C@@H](C)CC)NC(=O)[C@H](CC(C)C)N(C)C(=O)C[C@@H](C(=O)N(C)C)N(C)C(=O)[C@H](C(CC)CC)N(C)C(=O)C2(CCC2)NC(=O)[C@@H]2CCCN2C(=O)[C@H](CCc2ccc(C(F)(F)F)c(Cl)c2)NC(=O)CN(C)C(=O)[C@@H]1Cc1ccc(C(F)(F)F)cc1 [PP1960] ([NMeL]I[Sar][Sar][NPrPhe(4-CF3)][Sar][hPhe(3-Cl-4-CF3)]P[Ac4c][NMeNva(3-Et)][NMeD]-NMe2; lactam N-11)
[1]; KD ratio
  NRAS/KRAS (ratio of KD value for NRAS to KD value for KRAS): B (a compound having 3 or more and less than 10 is denoted as B)
[2]; KD ratio
  HRAS/KRAS (ratio of KD value for HRAS to KD value for KRAS): C (A compound having a KD ratio of 0.1 or more and less than 3 is denoted as C)

## C#CC[C@H]1C(=O)N[C@@H]([C@@H](C)CC)C(=O)N(C)CC(=O)N(C)[C@H]2C/C=C\CCN(C2=O)[C@@H](Cc2ccc(C(F)(F)F)cc2)C(=O)N(C)CC(=O)N[C@@H](CCc2cc(F)c(C(F)(F)F)c(F)c2)C(=O)N2C[C@@H](C)C[C@H]2C(=O)NC2(CC(C)(C)C2)C(=O)N(C)[C@@H](C2CCCC2)C(=O)N(C)[C@H](C(=O)N(C)CCC)CC(=O)N1C [PP2076]
[1]
  NRAS/KRAS (ratio of KD value with respect to NRAS to KD value with respect to KRAS): A (a compound having 10 or more and less than 20 is denoted as A)
[2]
  HRAS/KRAS (ratio of KD value with respect to HRAS to KD value with respect to KRAS): A (a compound having 10 or more and less than 20 is denoted as A)
